We go through two molecules from patent publication US4931440A, “Uricosuric composition” (Fujisawa Pharmaceutical Company, Ltd., priority 1987, dated 1990).

The nature of data set [1]: Effect on uric acid excretion in female rats (urinary uric acid assayed by HPLC). Particulars: p.o., urine collected 0-6 hr, dose 0: 3.07 ± 0.44. It is filed as in vivo, female SD rats. Here is the method: Female SD rats (6 weeks old) were fasted for 18 hours and submitted to the test (3 animals per group).
Compound B was suspended in 0.5% methylcellulose solution and the suspension was orally administered in a dosing volume of 5 ml/kg.
At the same time, the animals were orally loaded with 20 ml/kg of physiological saline. Urine samples were collected up to 6 hours after drug administration. The uric acid in each urine sample was assayed by HPLC.

Data set [2] can be described thus: Acute toxicity, oral, 14 days observation. The following applies: rat, in vivo, male SD rats. The source says:
Male SD rats (5 animals per group) were orally dosed with a suspension of the test compound in 0.5% methylcellulose solution and observed for 14 days after oral administration.

The nature of data set [3]: Uricosuric action: serum uric acid level in healthy male adult volunteers. Particulars: single oral dose 600 mg (two capsules of Example 1), N = 6. It is filed as in vivo, humans. Here is the method:
Compound A, in a single dose of 600 mg (two capsules according to the example (1) given hereinafter), was administered orally to six humans (healthy male adult volunteers) and the serum uric acid level was determined for 48 hours after administration.

As usually defined, the LD50 is the dose at which mortality reaches 50%. Consider `O=C(O)Cn1c(=O)n(Cc2ccc(Br)cc2F)c(=O)c2ccc(F)cc21` [Compound B, 2-[7-Fluoro-3-(4-bromo-2-fluorobenzyl)-1,2,3,4-tetrahydro-2,4-dioxoquinazolin-1-yl]acetic acid], for which the “Excretion of uric acid, mean ± S.E.” value amounted to 3.36 ± 0.14 mg/kg in data set [1] (10 mg/kg); 4.02 ± 0.18 mg/kg in data set [1] (100 mg/kg); 4.88 ± 0.24 mg/kg in data set [1] (320 mg/kg, *: P < 0.05). In data set [2], this molecule had an LD50 at 336 h of 2140 mg/kg.

In the case of `O=C(O)Cn1c(=O)n(Cc2ccc(Br)cc2F)c(=O)c2ccc(Cl)cc21` [Compound A], the “Serum uric acid concentration, mean ± standard deviation” value in data set [3] (4 Hrs. after administration, *: significant decrease from baseline (5.5500 ± 0.9439), < 0.05) came to 4.5000 ± 0.6542 mg/dL; in data set [3] (8 Hrs. after administration, **: significant decrease from baseline (5.5500 ± 0.9439), P < 0.01) it was 4.0333 ± 0.6250 mg/dL; in data set [3] (12 Hrs. after administration, **: significant decrease from baseline (5.5500 ± 0.9439), P < 0.01) it was 4.1667 ± 0.7448 mg/dL; in data set [3] (24 Hrs. after administration, *: significant decrease from baseline (5.5500 ± 0.9439), < 0.05) it was 4.3167 ± 0.7360 mg/dL; in data set [3] (48 Hrs. after administration, *: significant decrease from baseline (5.5500 ± 0.9439), < 0.05), 4.5167 ± 0.5981 mg/dL. In addition, in data set [2], the LD50 at 336 h was determined as 4250 mg/kg.
